Data published in publication PMC8162404, “Proteomimetic surface fragments distinguish targets by function” (Chemical Science, 2020).
Like-named read-outs stand apart in the source and are kept apart here.

Assays:
[1] = biological target: T1, Gal-1 (Homo sapiens, UniProt P09382); test: Pull-down assay with immobilized protein and LSM libraries; assay type: binding; details: 1:1 binding assumed, read-out: Surface mapping KD (apparent)
T1 construct: made in house; host or cells: E. coli BL21(DE3)
T1 sequence (P09382 whole entry): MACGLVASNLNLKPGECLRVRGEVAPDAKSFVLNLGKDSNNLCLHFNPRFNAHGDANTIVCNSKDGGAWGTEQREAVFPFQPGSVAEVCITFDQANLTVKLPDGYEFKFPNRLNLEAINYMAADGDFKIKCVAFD
Outline: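 His-tagged protein immobilized on Co-NTA resin (64 µM) in 20 mM HEPES pH 7.4, 150 mM NaCl, equilibrated 30 min at room temperature with foldamer LSM sublibraries at equimolar total concentration. Unbound fractions quantified by HPLC-MS versus protein-free resin control; apparent KD assumes 1:1 binding.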

[2] = biological target: T2, S100B (Homo sapiens, UniProt P04271); test: as above; assay type: binding; details: 1:1 binding assumed, read-out: Surface mapping KD (apparent)
T2 construct: made in house; host or cells: Escherichia coli BL21(DE3)
T2 sequence (P04271 1-92): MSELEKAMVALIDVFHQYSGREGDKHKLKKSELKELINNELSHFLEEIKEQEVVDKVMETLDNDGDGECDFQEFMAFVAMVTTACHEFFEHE
Outline: (§1)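 Buffers were HEPES pH 7.4 with 150 mM NaCl, plus 1 mM TCEP and 1 mM CaCl2 (50 mM HEPES) for S100A4 and S100B, 1 mM TCEP for Gal-1, and no additive for RecQ-WH. Immobilized protein at 64 µM was equilibrated 30 min with the LSM sublibrary, and unbound probes were measured by LC-MS.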

[3] = biological target: T3, RecQ-WH (Escherichia coli, UniProt P15043); test: as above; design: species or system E. coli; details: 1:1 binding assumed, read-out: Surface mapping KD (apparent)
T3 construct: coding for residues 408– 523 of E. coli RecQ; made in house; host or cells: E. coli BL21(DE3)
T3 sequence (P15043 408-523): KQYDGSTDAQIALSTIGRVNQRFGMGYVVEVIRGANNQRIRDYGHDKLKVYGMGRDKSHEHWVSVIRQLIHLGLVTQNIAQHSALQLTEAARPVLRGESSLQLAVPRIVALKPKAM
Method: Pull-down assays with immobilized test proteins and foldameric LSM libraries were carried out. Proteins were equilibrated with LSM probes, and equilibrium bound fractions (FB) were determined from the unbound fractions measured by HPLC-MS methods. Hits were corrected with background binding of the resin. The protocol allowed all binding events to equilibrate irrespective of affinity, specificity, and binding kinetics. This was essential to judge overall druggability and promiscuity. Importantly, the concentration of protein and the total concentration of foldameric LSMs were equimolar, which minimized competition between the probes. This experimental setup approximated independent binding of individual library members. Results were visualized as heat maps of dissociation constants (Fig. 3).
Pull-down assay and data analysis
Pull-down assay. LSM sublibraries were screened separately as previously described.(2) Experiments were performed in the following buffers: (i) 20 mM pH 7.4 HEPES, 150 mM NaCl, 5 mM CaCl2 for CaM; (ii) 50 mM pH 7.4 HEPES, 150 mM NaCl, 1 mM TCEP, 1 mM CaCl2 for S100 proteins; (iii) 20 mM pH 7.4 HEPES, 150 mM NaCl, 1 mM TCEP for Gal-1 and (iv) 20 mM pH 7.4 HEPES, 150 mM NaCl for RecQ-WH. Assays were performed in paper filter spin cups (Thermo Scientific) with sample volumes of 100 µl. Hexahistidine-tagged proteins were immobilized on previously washed Co-NTA resin (TALON, Takara Bio USA, Inc., Mountain View, CA) in 64 µM final concentration. LSM sublibrary was added, in which each of the 64 library members were used at a concentration of 1 µM. Samples were incubated at room temperature for 30 min with shaking at 100 rpm. Then, samples were centrifuged at 1000 rpm for 2 min and washed with 100 µl pull-down buffer to remove unbound compounds.
The control experiments were performed using the same compounds and the resin but without the immobilized protein. In case of competitive assays, competitor peptides were added to LSM sublibrary samples in 200 µM final concentration. In the case of Gal-1, lactose (competitor) was used in a concentration of 10 mM. Experiments were performed at least twice. Mean […]
LC-MS methods and parameters. HPLC/ESI-MS analysis was used to characterize the samples from the pull-down assay. LC-MS analysis was performed with a Thermo Scientific Dionex UltiMate 3000 HPLC system interfaced to an LTQ ion trap mass spectrometer (Thermo Electron Corp., San Jose, CA, USA). Samples were injected onto an Aeris Widepore XB-C18 (250 x 4.6 mm) analytical HPLC column using gradient elution 5-80 % solution B during 25 minutes. For pull-down samples, eluent composition was 0.1% acetic acid in distilled water (Solution A) and 0.1% acetic acid in acetonitrile (solution B). Mass spectra were acquired in full scan mode from 200 to 2000 m/z range. For overlapping peaks, selective reaction monitoring (SRM) was […]
MS data analysis. Thermo Xcalibur 2.2 software was used for peak identification and integration. The majority of the foldameric fragments could be resolved independently via HPLC-MS/MS measurements based on molecular weight, MS fragmentation pattern and retention time. Peaks of some foldamers with β3-hIle or β3-hLeu in position R2 could not be resolved, these were integrated and averaged. In the processing method, each sample component was associated to a chromatographic peak based on previously identified mass (m/z) and retention time (ref (2) and Table S7-10). Using ICIS peak detection algorithm, the general detection and integration criteria were: smoothing points: 5, baseline window: 80, area noise factor: 5, peak noise factor: 10. Using these processing setups, all raw data files were reprocessed together and analyzed. Errors in peak identification during the automatic processing were corrected manually.
Calculation of the discussed parameters
1. Bound fractions (FB.) were calculated from the HPLC-MS intensity loss of the LSM probes compared to the control where no protein was immobilized to the resin: […]

[4] = biological target: T4, CaM (Bos taurus, UniProt P62157); test: as above; assay type: binding, bovine; details: 1:2 stoichiometry assumed, read-out: Surface mapping KD (apparent)
T4 construct: made in house; host or cells: E. coli BL21 (DE3)
Outline: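 His-tagged protein immobilized on Co-NTA resin, equilibrated 30 min at room temperature with LSM sublibraries (64 members, […]), equimolar protein to total probe. CaM buffer: 20 mM HEPES pH 7.4, 150 mM NaCl, 5 mM CaCl2. Bound fractions from HPLC-MS loss of unbound probe versus protein-free resin control; Kd derived.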

[5] = biological target: T5, S100A4 (Homo sapiens, UniProt P26447); test: as above; assay type: binding; details: H14 library; 1:1 binding assumed; read-out: Surface mapping KD (apparent)
T5 construct: made in house; host or cells: Escherichia coli BL21(DE3)
T5 sequence (P26447 whole entry): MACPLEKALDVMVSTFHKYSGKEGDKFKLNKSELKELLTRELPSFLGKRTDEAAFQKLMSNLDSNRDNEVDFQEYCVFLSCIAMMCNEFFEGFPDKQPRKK
Outline: as §1

[6] = biological target: T4, CaM; test: Competition pull-down with native ligand TRPV1-Ct15; assay type: binding, bovine; details: H14 library; competitor peptide 200 µM; read-out: Surface mapping KD (apparent), competition
[7] = biological target: T2, S100B; test: Competition pull-down with native ligand RSK1 (689–735); assay type: binding; details: H14 library; competitor peptide 200 µM; read-out: Surface mapping KD (apparent), competition
[8] = biological target: T1, Gal-1; test: Competition pull-down with lactose; assay type: binding; details: H14 library; lactose 10 mM; read-out: Surface mapping KD (apparent), competition
Outline: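 His6-tagged proteins immobilized on Co-NTA resin at 64 µM final with 64-member LSM foldamer sublibraries (1 M each, as printed) in pH 7.4 HEPES/NaCl buffers (Ca2+/TCEP per target), 30 min RT; competitor peptides 200 µM final, lactose 10 mM for Gal-1. Bound fractions from LC-MS loss vs protein-free resin; KD assuming 1:1 binding.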

SMILES | Kd ([2]; H12 library) | Kd ([3]; H12 library) | Kd ([4]; H14 library) | Kd ([3]; H14 library) | Kd ([2]; H14 library) | other results
NCCCC[C@@H](CC(=O)N[C@H]1CCC[C@@H]1C(=O)N[C@H]1CCC[C@@H]1C(N)=O)NC(=O)[C@H]1CCC[C@@H]1NC(=O)[C@H]1CCC[C@@H]1NC(=O)C[C@H](Cc1c[nH]c2ccccc12)NC(=O)[C@H]1CCC[C@@H]1NC(=O)[C@H]1CCC[C@@H]1N [H12 WK] | 26 µM | 431 µM | – | – | – | Kd ([1]; H12 library): 266 µM
NCCCC[C@@H](CC(=O)N[C@H]1CCC[C@@H]1C(=O)N[C@H]1CCC[C@@H]1C(N)=O)NC(=O)[C@H]1CCC[C@@H]1NC(=O)[C@H]1CCC[C@@H]1NC(=O)C[C@H](Cc1ccc(O)cc1)NC(=O)[C@H]1CCC[C@@H]1NC(=O)[C@H]1CCC[C@@H]1N [H12 YK] | 86 µM | 280 µM | – | – | – | Kd ([4]; H12 library): 42 µM; Kd ([1]; H12 library): 371 µM
NCCCC[C@@H](CC(=O)N[C@H]1CCC[C@@H]1C(=O)N[C@H]1CCC[C@@H]1C(N)=O)NC(=O)[C@H]1CCC[C@@H]1NC(=O)[C@H]1CCC[C@@H]1NC(=O)C[C@H](Cc1ccccc1)NC(=O)[C@H]1CCC[C@@H]1NC(=O)[C@H]1CCC[C@@H]1N [H12 FK] | 37 µM | 337 µM | – | – | – | Kd ([4]; H12 library): 448 µM; Kd ([1]; H12 library): 246 µM
NC(=O)[C@H]1CCCC[C@@H]1NC(=O)C[C@H](CC(=O)O)NC(=O)[C@H]1CCCC[C@@H]1NC(=O)[C@H]1CCCC[C@@H]1NC(=O)C[C@H](Cc1ccccc1)NC(=O)[C@H]1CCCC[C@@H]1N [H14 FD] | – | – | 489 µM | 193 µM | – | –
N=C(N)NCCC[C@@H](CC(=O)N[C@H]1CCCC[C@@H]1C(=O)N[C@H]1CCCC[C@@H]1C(=O)N[C@@H](CC(N)=O)CC(=O)N[C@H]1CCCC[C@@H]1C(N)=O)NC(=O)[C@H]1CCCC[C@@H]1N [H14 RN] | – | – | 185 µM | 439 µM | 212 µM | –
N=C(N)NCCC[C@@H](CC(=O)N[C@H]1CCCC[C@@H]1C(=O)N[C@H]1CCCC[C@@H]1C(=O)N[C@@H](CO)CC(=O)N[C@H]1CCCC[C@@H]1C(N)=O)NC(=O)[C@H]1CCCC[C@@H]1N [H14 RS] | – | – | 155 µM | 403 µM | 413 µM | –
NC(=O)[C@H]1CCCC[C@@H]1NC(=O)C[C@H](CCC(=O)O)NC(=O)[C@H]1CCCC[C@@H]1NC(=O)[C@H]1CCCC[C@@H]1NC(=O)C[C@H](Cc1ccccc1)NC(=O)[C@H]1CCCC[C@@H]1N [H14 FE] | – | – | 475 µM | 328 µM | – | –
NC(=O)CC[C@@H](CC(=O)N[C@H]1CCCC[C@@H]1C(=O)N[C@H]1CCCC[C@@H]1C(=O)N[C@H](CC(=O)N[C@H]1CCCC[C@@H]1C(N)=O)Cc1ccccc1)NC(=O)[C@H]1CCCC[C@@H]1N [H14 QF] | – | – | 39 µM | – | 83 µM | Kd ([1]; H14 library): 285 µM; Kd [5]: 443 µM; Kd [6]: 211 µM; Kd [7]: 425 µM; Kd [8]: 319 µM
N=C(N)NCCC[C@@H](CC(=O)N[C@H]1CCCC[C@@H]1C(=O)N[C@H]1CCCC[C@@H]1C(=O)N[C@@H](CC(=O)O)CC(=O)N[C@H]1CCCC[C@@H]1C(N)=O)NC(=O)[C@H]1CCCC[C@@H]1N [H14 RD] | – | – | – | 427 µM | – | –
NC(=O)CC[C@@H](CC(=O)N[C@H]1CCCC[C@@H]1C(=O)N[C@H]1CCCC[C@@H]1C(=O)N[C@H](CC(=O)N[C@H]1CCCC[C@@H]1C(N)=O)Cc1ccc(O)cc1)NC(=O)[C@H]1CCCC[C@@H]1N [H14 QY] | – | – | 92 µM | – | 166 µM | Kd ([1]; H14 library): 174 µM; Kd [6]: 345 µM; Kd [7]: 188 µM; Kd [8]: 350 µM
CSCC[C@@H](CC(=O)N[C@H]1CCC[C@@H]1C(=O)N[C@H]1CCC[C@@H]1C(=O)N[C@@H](CCCNC(=N)N)CC(=O)N[C@H]1CCC[C@@H]1C(=O)N[C@H]1CCC[C@@H]1C(N)=O)NC(=O)[C@H]1CCC[C@@H]1NC(=O)[C@H]1CCC[C@@H]1N [H12 MR] | 59 µM | 435 µM | – | – | – | Kd ([1]; H12 library): 186 µM
NC(=O)[C@H]1CCC[C@@H]1NC(=O)[C@H]1CCC[C@@H]1NC(=O)C[C@H](CO)NC(=O)[C@H]1CCC[C@@H]1NC(=O)[C@H]1CCC[C@@H]1NC(=O)C[C@H](Cc1c[nH]c2ccccc12)NC(=O)[C@H]1CCC[C@@H]1NC(=O)[C@H]1CCC[C@@H]1N [H12 WS] | 54 µM | 420 µM | – | – | – | Kd ([1]; H12 library): 413 µM
CC(C)C[C@@H](CC(=O)N[C@H]1CCCC[C@@H]1C(N)=O)NC(=O)[C@H]1CCCC[C@@H]1NC(=O)[C@H]1CCCC[C@@H]1NC(=O)C[C@H](CCC(=O)O)NC(=O)[C@H]1CCCC[C@@H]1N [H14 EL] | – | – | – | 444 µM | – | –
CC(C)C[C@@H](CC(=O)N[C@H]1CCC[C@@H]1C(=O)N[C@H]1CCC[C@@H]1C(=O)N[C@@H](CCCCN)CC(=O)N[C@H]1CCC[C@@H]1C(=O)N[C@H]1CCC[C@@H]1C(N)=O)NC(=O)[C@H]1CCC[C@@H]1NC(=O)[C@H]1CCC[C@@H]1N [H12 LK] | 54 µM | 434 µM | – | – | – | –
CC[C@H](C)[C@@H](CC(=O)N[C@H]1CCCC[C@@H]1C(N)=O)NC(=O)[C@H]1CCCC[C@@H]1NC(=O)[C@H]1CCCC[C@@H]1NC(=O)C[C@H](CCC(=O)O)NC(=O)[C@H]1CCCC[C@@H]1N [H14 EI] | – | – | – | 444 µM | – | –
NC(=O)[C@H]1CCCC[C@@H]1NC(=O)C[C@H](Cc1ccc(O)cc1)NC(=O)[C@H]1CCCC[C@@H]1NC(=O)[C@H]1CCCC[C@@H]1NC(=O)C[C@H](CO)NC(=O)[C@H]1CCCC[C@@H]1N [H14 SY] | – | – | 90 µM | – | 225 µM | Kd ([1]; H14 library): 318 µM; Kd [6]: 244 µM; Kd [7]: 109 µM; Kd [8]: 348 µM
NCCCC[C@@H](CC(=O)N[C@H]1CCCC[C@@H]1C(=O)N[C@H]1CCCC[C@@H]1C(=O)N[C@H](CC(=O)N[C@H]1CCCC[C@@H]1C(N)=O)Cc1ccc(O)cc1)NC(=O)[C@H]1CCCC[C@@H]1N [H14 KY] | – | – | 36 µM | 407 µM | 63 µM | –
